Measured values published in patent US8940897B2, “1,3,4-oxadiazole and 1,3,4-thiadiazole β-lactamase inhibitors” (priority 2012, dated 2015).
Structures can show the parent of a compound that is named as a salt.

Key:
[1] = system: bacterial strains that express KPC β-lactamases; experiment: Synergy MIC / standard BLI potentiation MIC assay, strains expressing KPC β-lactamases; format: cell-based; details: for at least one KPC strain and/or a better spectrum of activity against KPC strains than Avibactam; in the presence of a β-lactam
Procedure, shortened: (§1)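 CLSI broth microdilution in CAMHB, ~10^5 CFU/mL, 18–20 h at 37 °C with aeration; engineered E. coli kept on 25 μg/mL tetracycline. Potentiation: β-lactam 128–0.13 μg/mL with BLI fixed at 4 μg/mL; synergy MIC: BLI serially diluted with fixed β-lactam. MIC is the lowest concentration without visible turbidity.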

[2] = system: bacterial strains that express the class D cephalosporinase OXA-15; experiment: Synergy MIC / standard BLI potentiation MIC assay, strains expressing OXA-15;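 further: more active means a lower MIC or sMIC than Avibactam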; format: cell-based, E. coli; details: in the presence of a β-lactam; comparator Avibactam (CCC)
Procedure, shortened: as §1

SMILES: N[C@H]1C[C@H](CCc2nnc([C@@H]3CC[C@@H]4CN3C(=O)N4OS(=O)(=O)O)o2)C1 [Compound 753, (2S,5R)-2-(5-(2-((1r,3R)-3-aminocyclobutyl)ethyl)-1,3,4-oxadiazol-2-yl)-7-oxo-1,6-diazabicyclo[3.2.1]octan-6-yl hydrogen sulfate]
- activity against bacterial strains that express KPC β-lactamase compared with Avibactam [1]: more active than Avibactam
- activity against bacterial strains that express OXA-15 β-lactamase compared with Avibactam [2]: more active than Avibactam

SMILES: N[C@H]1C[C@@H](CCc2nnc([C@@H]3CC[C@@H]4CN3C(=O)N4OS(=O)(=O)O)o2)C1 [Compound 754, (2S,5R)-2-(5-(2-((1s,3S)-3-aminocyclobutyl)ethyl)-1,3,4-oxadiazol-2-yl)-7-oxo-1,6-diazabicyclo[3.2.1]octan-6-yl hydrogen sulfate]
- activity against bacterial strains that express KPC β-lactamase compared with Avibactam [1]: more active than Avibactam
- activity against bacterial strains that express OXA-15 β-lactamase compared with Avibactam [2]: more active than Avibactam

SMILES: NC1CC(NCc2nnc([C@@H]3CC[C@@H]4CN3C(=O)N4OS(=O)(=O)O)o2)C1 (stereo partly drawn) [Compound 755, (2S,5R)-2-(5-(((3-aminocyclobutyl)amino)methyl)-1,3,4-oxadiazol-2-yl)-7-oxo-1,6-diazabicyclo[3.2.1]octan-6-yl hydrogen sulfate]
- activity against bacterial strains that express KPC β-lactamase compared with Avibactam [1]: more active than Avibactam
- activity against bacterial strains that express OXA-15 β-lactamase compared with Avibactam [2]: more active than Avibactam

SMILES: N[C@H]1C[C@@H](NCc2nnc([C@@H]3CC[C@@H]4CN3C(=O)N4OS(=O)(=O)O)o2)C1 [Compound 756, (2S,5R)-2-(5-((((1s,3R)-3-aminocyclobutyl)amino)methyl)-1,3,4-oxadiazol-2-yl)-7-oxo-1,6-diazabicyclo[3.2.1]octan-6-yl hydrogen sulfate]
- activity against bacterial strains that express KPC β-lactamase compared with Avibactam [1]: more active than Avibactam
- activity against bacterial strains that express OXA-15 β-lactamase compared with Avibactam [2]: more active than Avibactam

SMILES: O=C1N2C[C@@H](CC[C@H]2c2nnc([C@H]3CCNC3)o2)N1OS(=O)(=O)O [Compound 758, (2S,5R)-7-oxo-2-(5-((S)-pyrrolidin-3-yl)-1,3,4-oxadiazol-2-yl)-1,6-diazabicyclo[3.2.1]octan-6-yl hydrogen sulfate]
- activity against bacterial strains that express KPC β-lactamase compared with Avibactam [1]: more active than Avibactam
- activity against bacterial strains that express OXA-15 β-lactamase compared with Avibactam [2]: more active than Avibactam

SMILES: O=C1N2C[C@@H](CC[C@H]2c2nnc([C@@H]3CCNC3)o2)N1OS(=O)(=O)O [Compound 759, (2S,5R)-7-oxo-2-(5-((R)-pyrrolidin-3-yl)-1,3,4-oxadiazol-2-yl)-1,6-diazabicyclo[3.2.1]octan-6-yl hydrogen sulfate]
- activity against bacterial strains that express KPC β-lactamase compared with Avibactam [1]: more active than Avibactam
- activity against bacterial strains that express OXA-15 β-lactamase compared with Avibactam [2]: more active than Avibactam

SMILES: N[C@@H]1CN[C@H](c2nnc([C@@H]3CC[C@@H]4CN3C(=O)N4OS(=O)(=O)O)o2)C1 [Compound 760, (2S,5R)-2-(5-((2S,4S)-4-aminopyrrolidin-2-yl)-1,3,4-oxadiazol-2-yl)-7-oxo-1,6-diazabicyclo[3.2.1]octan-6-yl hydrogen sulfate]
- activity against bacterial strains that express KPC β-lactamase compared with Avibactam [1]: more active than Avibactam
- activity against bacterial strains that express OXA-15 β-lactamase compared with Avibactam [2]: more active than Avibactam

SMILES: N[C@H]1CN[C@@H](c2nnc([C@@H]3CC[C@@H]4CN3C(=O)N4OS(=O)(=O)O)o2)C1 [Compound 761, (2S,5R)-2-(5-((2R,4R)-4-aminopyrrolidin-2-yl)-1,3,4-oxadiazol-2-yl)-7-oxo-1,6-diazabicyclo[3.2.1]octan-6-yl hydrogen sulfate]
- activity against bacterial strains that express KPC β-lactamase compared with Avibactam [1]: more active than Avibactam
- activity against bacterial strains that express OXA-15 β-lactamase compared with Avibactam [2]: more active than Avibactam
